Legend:
AurA = biological target: T1, AurA (Homo sapiens, UniProt O14965); experiment: Desktop Profiler kinase panel, AurA; format: biochemical; conditions: for inhibition at 1 µM: 1 micromolar concentration of the compound; for inhibition at 10 µM: 10 micromolar concentration of the compound, read-out: Percent Inhibition AurA
T1 construct: purchased Caliper Life Sciences
T1 sequence (O14965 1-403): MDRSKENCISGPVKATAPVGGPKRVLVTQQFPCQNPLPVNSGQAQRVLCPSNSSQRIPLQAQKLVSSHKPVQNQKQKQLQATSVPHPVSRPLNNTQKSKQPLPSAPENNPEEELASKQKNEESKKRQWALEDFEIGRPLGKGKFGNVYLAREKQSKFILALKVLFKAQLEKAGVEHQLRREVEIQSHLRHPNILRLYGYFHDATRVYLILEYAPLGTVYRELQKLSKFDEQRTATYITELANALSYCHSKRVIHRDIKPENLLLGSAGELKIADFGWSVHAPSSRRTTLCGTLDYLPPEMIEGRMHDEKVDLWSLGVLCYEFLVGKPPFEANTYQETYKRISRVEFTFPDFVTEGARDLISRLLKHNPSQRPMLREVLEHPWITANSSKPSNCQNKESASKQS
Experimental: (§1) The Aurora assays described here are performed on two Caliper Life Sciences systems: the LC3000 and the Desktop Profiler. These provide data on enzyme activity via measurement of the relative amounts of phosphorylated or unphosphorylated fluorescently labelled substrate peptide at the end of an enzymatic reaction. These different states of peptide are resolved by applying a potential difference across the sample. The presence of the charged phosphate group on the product (as opposed to the substrate) causes a different peptide mobility between the two peptides. This is visualized by excitation of the fluorescent label on the substrate and product peptides and represented as peaks within the analysis software.
(§2) The Desktop Profiler utilizes the same principle as the LC3000 for calculating percentage conversion of a substrate to product. Caliper Life Sciences provides proprietary flash frozen pre-made 384 well plates containing selected kinases. Each column in the 384 well plate contains a particular selected kinase. A second plate, the ‘substrate plate’ contains a mix of fluorescently labeled peptide substrate and ATP. These are arranged in columns so that transfer for substrate plate to enzyme plate provides the correct enzyme with the correct substrate/ATP concentration. Compounds are added to a thawed enzyme plate in the desired format, in single concentrations. Reactions are initiated by transfer of the substrate/ATP mix from the substrate plate. The enzyme plate is incubated for 90 mins at 25 C. The reaction is stopped by addition of 70 ul of Stop Buffer (100 mM HEPES pH 7.5, 0.015% Brij-35, 10 mM EDTA (Sigma, E7889)).
(§3) Reading of the plate in the Profiler is identical to the LC3000, and the ratio between substrate and product peaks provides the activity of the enzyme in that well. This is best represented by a plate heat map which colors each well by percent inhibition as compared to positive and negative controls (no inhibitors and no ATP respectively).
(§4) In the following Tables 3a-4-b, which show the results of the desktop profiler measurements, “+” means 50-70% inhibition, “++” means 70-90% inhibition, and “+++” means >90% inhibition. The enzymes tested for profiling were ABL, AKT1, AKT2, AurA, CHK1, CHK2, CK1d, Erk1, Erk2, FYN, GSK3b, INSR, LCK, LYN, MAPKAPK2, MET, MSK1, p38a, PKA, PKCz, PKD2, PRAK, RSK1 and SRC.

FYN = biological target: T2, FYN (Homo sapiens, UniProt P06241); experiment: Desktop Profiler kinase panel, FYN; format: biochemical; conditions: for inhibition at 10 µM: 10 micromolar concentration of the compound, read-out: Percent Inhibition FYN
T2 construct: purchased Caliper Life Sciences
T2 sequence (P06241 whole entry, species assumed): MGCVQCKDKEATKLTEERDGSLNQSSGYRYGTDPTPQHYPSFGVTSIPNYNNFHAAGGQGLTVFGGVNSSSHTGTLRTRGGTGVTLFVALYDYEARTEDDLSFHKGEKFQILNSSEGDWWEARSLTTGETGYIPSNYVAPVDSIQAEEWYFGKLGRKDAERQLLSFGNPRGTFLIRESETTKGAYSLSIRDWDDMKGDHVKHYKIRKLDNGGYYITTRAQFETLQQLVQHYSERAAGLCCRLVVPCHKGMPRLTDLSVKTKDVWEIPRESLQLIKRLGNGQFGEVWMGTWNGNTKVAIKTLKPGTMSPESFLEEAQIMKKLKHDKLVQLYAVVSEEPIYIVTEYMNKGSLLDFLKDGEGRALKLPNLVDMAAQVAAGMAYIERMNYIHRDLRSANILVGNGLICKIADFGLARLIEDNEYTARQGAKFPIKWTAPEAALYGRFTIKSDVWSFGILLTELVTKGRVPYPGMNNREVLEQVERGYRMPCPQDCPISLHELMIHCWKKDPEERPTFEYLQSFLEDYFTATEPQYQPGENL
Experimental: as §1, §2, §3, §4

CHK2 = biological target: T3, CHK2 (Homo sapiens, UniProt O96017); experiment: Desktop Profiler kinase panel, CHK2; format: biochemical; conditions: for inhibition at 1 µM: 1 micromolar concentration of the compound; for inhibition at 10 µM: 10 micromolar concentration of the compound, read-out: Percent Inhibition CHK2
T3 construct: purchased Caliper Life Sciences
T3 sequence (O96017 whole entry, species assumed): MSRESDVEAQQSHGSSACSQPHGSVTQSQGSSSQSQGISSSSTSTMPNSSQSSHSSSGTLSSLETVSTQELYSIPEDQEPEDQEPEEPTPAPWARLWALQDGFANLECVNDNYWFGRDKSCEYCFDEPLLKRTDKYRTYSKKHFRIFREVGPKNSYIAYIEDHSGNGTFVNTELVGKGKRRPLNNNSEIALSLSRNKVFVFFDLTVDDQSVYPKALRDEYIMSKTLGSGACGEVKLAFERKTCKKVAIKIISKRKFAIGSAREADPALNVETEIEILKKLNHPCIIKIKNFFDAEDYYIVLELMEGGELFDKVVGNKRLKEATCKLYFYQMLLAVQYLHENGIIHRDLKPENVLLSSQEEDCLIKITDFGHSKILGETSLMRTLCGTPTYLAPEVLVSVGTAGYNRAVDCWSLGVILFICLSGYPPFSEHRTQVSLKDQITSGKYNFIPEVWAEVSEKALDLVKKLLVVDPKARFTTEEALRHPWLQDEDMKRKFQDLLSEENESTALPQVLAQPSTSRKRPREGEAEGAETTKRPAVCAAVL
Experimental: as §1, §2, §3, §4

LCK = biological target: T4, LCK (Homo sapiens, UniProt P06239); experiment: Desktop Profiler kinase panel, LCK; format: biochemical; conditions: for inhibition at 10 µM: 10 micromolar concentration of the compound, read-out: Percent Inhibition LCK
T4 construct: purchased Caliper Life Sciences
T4 sequence (P06239 whole entry, species assumed): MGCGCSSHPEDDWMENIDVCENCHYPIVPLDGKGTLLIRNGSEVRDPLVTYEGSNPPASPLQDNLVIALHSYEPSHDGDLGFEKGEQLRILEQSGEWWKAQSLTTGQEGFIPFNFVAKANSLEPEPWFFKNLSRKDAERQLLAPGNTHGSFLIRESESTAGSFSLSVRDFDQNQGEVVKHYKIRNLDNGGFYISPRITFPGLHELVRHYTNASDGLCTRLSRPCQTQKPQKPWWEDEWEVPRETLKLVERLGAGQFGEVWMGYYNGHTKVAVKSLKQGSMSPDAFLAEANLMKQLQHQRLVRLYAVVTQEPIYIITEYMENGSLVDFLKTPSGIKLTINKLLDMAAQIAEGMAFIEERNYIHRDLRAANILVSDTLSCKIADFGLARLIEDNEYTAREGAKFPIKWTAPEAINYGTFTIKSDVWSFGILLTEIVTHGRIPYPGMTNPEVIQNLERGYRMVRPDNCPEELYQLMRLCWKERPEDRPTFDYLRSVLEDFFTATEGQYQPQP
Experimental: as §1, §2, §3, §4

PKA = biological target: T5, PKA (Homo sapiens, UniProt P17612); experiment: Desktop Profiler kinase panel, PKA; format: biochemical; conditions: 10 micromolar concentration of the compound; read-out: Percent Inhibition PKA
T5 construct: purchased Caliper Life Sciences
Experimental: as §1, §2, §3, §4

ABL = biological target: T6, ABL (Homo sapiens, UniProt P00519); experiment: Desktop Profiler kinase panel, ABL; format: biochemical; conditions: for inhibition at 10 µM: 10 micromolar concentration of the compound, read-out: Percent Inhibition ABL
T6 construct: purchased Caliper Life Sciences
T6 sequence (P00519 whole entry, species assumed): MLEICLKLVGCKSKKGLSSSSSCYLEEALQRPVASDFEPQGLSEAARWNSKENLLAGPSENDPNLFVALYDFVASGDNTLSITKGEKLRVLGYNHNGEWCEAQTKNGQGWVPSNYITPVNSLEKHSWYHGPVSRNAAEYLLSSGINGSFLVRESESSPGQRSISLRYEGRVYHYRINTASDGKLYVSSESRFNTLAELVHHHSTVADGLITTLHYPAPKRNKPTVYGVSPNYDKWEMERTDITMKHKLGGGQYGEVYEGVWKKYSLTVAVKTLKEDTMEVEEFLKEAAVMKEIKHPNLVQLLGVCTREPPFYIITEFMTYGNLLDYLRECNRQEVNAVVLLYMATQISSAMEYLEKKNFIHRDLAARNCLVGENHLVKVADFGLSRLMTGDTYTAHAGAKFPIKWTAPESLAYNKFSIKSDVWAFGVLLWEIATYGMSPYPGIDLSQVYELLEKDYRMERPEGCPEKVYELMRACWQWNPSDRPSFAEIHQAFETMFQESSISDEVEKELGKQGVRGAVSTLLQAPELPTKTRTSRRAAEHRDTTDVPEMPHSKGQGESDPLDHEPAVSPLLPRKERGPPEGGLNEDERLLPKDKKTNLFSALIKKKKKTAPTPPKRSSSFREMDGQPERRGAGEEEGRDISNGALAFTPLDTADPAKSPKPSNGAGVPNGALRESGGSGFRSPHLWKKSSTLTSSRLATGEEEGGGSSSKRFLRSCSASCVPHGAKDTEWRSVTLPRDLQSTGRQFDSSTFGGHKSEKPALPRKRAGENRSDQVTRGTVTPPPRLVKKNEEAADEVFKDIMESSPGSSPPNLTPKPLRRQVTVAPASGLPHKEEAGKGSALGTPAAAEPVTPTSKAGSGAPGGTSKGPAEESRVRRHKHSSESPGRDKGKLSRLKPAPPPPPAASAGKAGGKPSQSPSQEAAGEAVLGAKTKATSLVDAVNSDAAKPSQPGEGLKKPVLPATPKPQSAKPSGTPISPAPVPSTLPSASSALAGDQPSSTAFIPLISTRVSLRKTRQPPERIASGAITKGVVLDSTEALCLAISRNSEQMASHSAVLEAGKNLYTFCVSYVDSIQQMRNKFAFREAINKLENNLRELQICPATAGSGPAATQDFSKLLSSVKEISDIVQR
Experimental: as §1, §2, §3, §4

SRC = biological target: T7, SRC (Homo sapiens, UniProt P12931); experiment: Desktop Profiler kinase panel, SRC; format: biochemical; conditions: for inhibition at 10 µM: 10 micromolar concentration of the compound, read-out: Percent Inhibition SRC
T7 construct: purchased Caliper Life Sciences
T7 sequence (P12931 whole entry, species assumed): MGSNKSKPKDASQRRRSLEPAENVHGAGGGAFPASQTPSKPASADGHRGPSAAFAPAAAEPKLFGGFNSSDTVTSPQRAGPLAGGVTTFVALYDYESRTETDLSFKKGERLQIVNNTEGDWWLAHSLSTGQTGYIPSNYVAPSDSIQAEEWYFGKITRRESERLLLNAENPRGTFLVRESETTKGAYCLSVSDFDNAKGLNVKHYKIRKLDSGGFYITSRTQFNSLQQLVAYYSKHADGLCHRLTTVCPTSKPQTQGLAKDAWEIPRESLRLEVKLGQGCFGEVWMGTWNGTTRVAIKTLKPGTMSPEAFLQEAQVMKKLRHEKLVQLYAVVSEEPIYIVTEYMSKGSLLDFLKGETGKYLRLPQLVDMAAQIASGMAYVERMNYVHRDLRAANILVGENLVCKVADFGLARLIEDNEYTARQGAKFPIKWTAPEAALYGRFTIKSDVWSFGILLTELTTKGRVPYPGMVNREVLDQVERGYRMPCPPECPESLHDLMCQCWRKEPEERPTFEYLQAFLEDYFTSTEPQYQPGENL
Experimental: as §1, §2, §3, §4

LYN = biological target: T8, LYN (Homo sapiens, UniProt P07948); experiment: Desktop Profiler kinase panel, LYN; format: biochemical; conditions: for inhibition at 1 µM: 1 micromolar concentration of the compound; for inhibition at 10 µM: 10 micromolar concentration of the compound, read-out: Percent Inhibition LYN
T8 construct: purchased Caliper Life Sciences
T8 sequence (P07948 whole entry, species assumed): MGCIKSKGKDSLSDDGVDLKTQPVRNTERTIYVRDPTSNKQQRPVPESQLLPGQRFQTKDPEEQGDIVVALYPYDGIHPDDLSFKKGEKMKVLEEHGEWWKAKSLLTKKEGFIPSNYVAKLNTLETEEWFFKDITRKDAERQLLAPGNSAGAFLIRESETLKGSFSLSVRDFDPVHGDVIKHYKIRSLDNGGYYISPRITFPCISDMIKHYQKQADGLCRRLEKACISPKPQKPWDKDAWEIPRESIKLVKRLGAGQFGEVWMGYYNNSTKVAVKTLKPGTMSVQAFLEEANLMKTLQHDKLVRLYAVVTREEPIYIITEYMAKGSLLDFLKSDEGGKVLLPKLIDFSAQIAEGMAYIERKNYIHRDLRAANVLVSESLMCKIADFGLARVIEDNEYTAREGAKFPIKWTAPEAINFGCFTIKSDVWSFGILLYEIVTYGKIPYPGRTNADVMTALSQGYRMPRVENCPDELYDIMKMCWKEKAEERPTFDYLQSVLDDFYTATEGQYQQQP
Experimental: as §1, §2, §3, §4

CK1d = biological target: T9, CK1d (Homo sapiens, UniProt P48730); experiment: Desktop Profiler kinase panel, CK1d; format: biochemical; conditions: 10 micromolar concentration of the compound; read-out: Percent Inhibition CK1d
T9 construct: purchased Caliper Life Sciences
T9 sequence (P48730 whole entry): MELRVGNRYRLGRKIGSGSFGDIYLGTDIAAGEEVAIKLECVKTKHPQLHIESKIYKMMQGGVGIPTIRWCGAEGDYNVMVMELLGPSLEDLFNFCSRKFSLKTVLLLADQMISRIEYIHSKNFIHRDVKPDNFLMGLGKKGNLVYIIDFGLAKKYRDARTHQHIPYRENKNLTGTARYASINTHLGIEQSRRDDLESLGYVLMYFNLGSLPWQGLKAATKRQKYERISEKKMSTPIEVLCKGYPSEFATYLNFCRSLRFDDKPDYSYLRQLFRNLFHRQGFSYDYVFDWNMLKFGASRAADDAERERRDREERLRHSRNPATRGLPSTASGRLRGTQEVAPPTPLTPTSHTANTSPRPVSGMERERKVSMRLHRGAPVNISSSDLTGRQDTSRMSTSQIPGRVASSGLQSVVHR
Experimental: as §1, §2, §3, §4

GST-Aurora A = biological target: T10, GST-Aurora A (Homo sapiens, UniProt O14965); experiment: Aurora A IC50, Caliper LC3000 mobility shift assay; format: biochemical; conditions: LC3000 method; 15 uM ATP (the KM value); read-out: Aurora Kinase A Activity (IC50)
T10 construct: N-terminal GST fusion with full length Aurora A (1-403 amino acids); purchased Carna Biosciences 05-101
T10 sequence (O14965 1-403): T1 sequence (O14965 1-403)
Summary of the method: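 Readout: percent conversion of FITC-LRRASLG (1 uM) to phosphopeptide, resolved electrophoretically on a Caliper LC3000, fitted against inhibitor concentration for IC50. Reaction: N-terminal GST full-length Aurora A, ATP at its KM (15 uM), pH 7.5 HEPES with MgCl2/DTT, 25 C for 90 min.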

[1] = system: tumor cells of various origins / normal human cells; conditions: in vitro; cited from earlier work
human tumor xenograft = human tumor xenograft model; several intermittent dosing schedules; cited from earlier work
[2] = system: leukemia, colon and pancreatic tumors; conditions: variety of in vivo xenograft models; well-tolerated doses; cited from earlier work
[3] = 1 micromolar concentration of the compound

SMILES | inhibition at 1 µM (AurA) [%] | inhibition at 10 µM (AurA) [%] | inhibition at 1 µM (FYN; [3]) [%] | inhibition at 1 µM (CHK2) [%] | inhibition at 10 µM (CHK2) [%] | inhibition at 1 µM (LCK; [3]) [%] | inhibition at 10 µM (LCK) [%] | inhibition at 10 µM (PKA) [%] | inhibition at 1 µM (ABL; [3]) [%] | inhibition at 10 µM (ABL) [%] | inhibition at 1 µM (SRC; [3]) [%] | inhibition at 10 µM (SRC) [%] | inhibition at 1 µM (LYN) [%] | inhibition at 10 µM (LYN) [%] | inhibition at 10 µM (CK1d) [%] | inhibition at 10 µM (FYN) [%] | IC50 (GST-Aurora A) [nM] | less effective at inhibiting normal human cell growth than tumor cell proliferation [1] | antitumor activity (human tumor xenograft) | inhibition of tumor growth [2]
Clc1nc2nccc(Nc3ccccc3)c2c2ccccc12 [Example 139, (6-Chloro-benzo[c][1,8]naphthyridin-1-yl)-phenyl-amine] |  | 70 to 90 |  |  | 50 to 70 |  | 70 to 90 |  |  | > 90 |  | > 90 |  | > 90 |  | > 90 | > 100 |  |  | 
Nc1nc(Nc2ccc(S(N)(=O)=O)cc2)nn1C(=O)c1c(F)cccc1F [JNJ-7706621] |  |  |  |  |  |  |  |  |  |  |  |  |  |  |  |  |  | about 10 fold | significant antitumor activity | 
Cc1cc(Nc2cc(N3CCN(C)CC3)nc(Sc3ccc(NC(=O)C4CC4)cc3)n2)n[nH]1 [VX-680] |  |  |  |  |  |  |  |  |  |  |  |  |  |  |  |  |  |  |  | profound inhibition of tumor growth

Second part, led by results:

inhibition at 1 µM (AurA) [%] | inhibition at 10 µM (AurA) [%] | inhibition at 1 µM (FYN; [3]) [%] | inhibition at 1 µM (CHK2) [%] | inhibition at 10 µM (CHK2) [%] | inhibition at 1 µM (LCK; [3]) [%] | inhibition at 10 µM (LCK) [%] | inhibition at 10 µM (PKA) [%] | inhibition at 1 µM (ABL; [3]) [%] | inhibition at 10 µM (ABL) [%] | inhibition at 1 µM (SRC; [3]) [%] | inhibition at 10 µM (SRC) [%] | inhibition at 1 µM (LYN) [%] | inhibition at 10 µM (LYN) [%] | inhibition at 10 µM (CK1d) [%] | inhibition at 10 µM (FYN) [%] | IC50 (GST-Aurora A) [nM] | SMILES | less effective at inhibiting normal human cell growth than tumor cell proliferation [1] | antitumor activity (human tumor xenograft) | inhibition of tumor growth [2]
50 to 70 | 70 to 90 | 70 to 90 | 50 to 70 | 70 to 90 | 50 to 70 | 70 to 90 | 50 to 70 | 50 to 70 | 70 to 90 | 70 to 90 | 70 to 90 | 70 to 90 | > 90 |  |  |  | COc1ccc(Nc2ccnc3[nH]c(=O)c4ccccc4c23)cc1 [Example 113, 1-(4-Methoxy-phenylamino)-5H-benzo[c][1,8]naphthyridin-6-one] |  |  | 
> 90 | > 90 |  | > 90 | > 90 |  |  |  |  |  |  | 50 to 70 | 50 to 70 | 70 to 90 | 50 to 70 | 50 to 70 | < 11 | O=C(Nc1ccc(Nc2ccnc3[nH]c(=O)c4ccccc4c23)cc1)c1ccccc1 [Example 120, N-[4-(6-Oxo-5,6-dihydro-benzo[c][1,8]naphthyridin-1-ylamino)-phenyl]-benzamide] |  |  | 

— US8735584B2 (Merck Patent GmbH, priority 2008, dated 2014)
